ChEMBL document CHEMBL1201862, “PubChem BioAssay data set” (2004)
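1) Cells in 96-well plates. 2) Compound, 48 h, 5 concentrations. 3) Linear interpolation between surrounding doses. 4) Unreached endpoint = highest concentration. GI50 = concentration required for 50% inhibition of growth.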 Active and inactive are the calls of the source. Cut-off read from the data, not from the text of the source: active = GI50 up to about 1.1 µM and inactive = higher.

Experiments:
Test in all cases: inhibition of tumour cell growth, NCI panel, 48 h
[1] = system: COLO 205
[2] = system: SK-MEL-28
[3] = system: HT-29
[4] = system: CAKI-1
[5] = system: TK-10
[6] = system: KM12
[7] = system: SF-268
[8] = system: SNB-19
[9] = system: UO-31
[10] = system: SK-OV-3
[11] = system: HCT-116
[12] = system: RPMI-8226
[13] = system: UACC-257
[14] = system: LOX IMVI
[15] = system: NCI-H460
[16] = system: A498
[17] = system: SNB-75
[18] = system: A549
[19] = system: PC-3
[20] = system: DU-145

Measured: GI50

O=C(O)/C=C/c1ccncc1
inactive: [1] > 100 µM | [2] > 100 µM | [3] > 100 µM | [4] > 100 µM | [5] > 100 µM | [6] > 100 µM | [7] > 100 µM | [8] > 100 µM | [9] > 100 µM | [10] > 100 µM | [11] > 100 µM | [12] > 100 µM | [13] > 100 µM | [14] > 100 µM | [15] > 100 µM | [16] > 100 µM | [17] > 100 µM

O=C1OC(c2ccccc2)=N/C1=C/c1cccs1
inactive: [2] > 100 µM | [3] > 100 µM | [5] > 100 µM | [18] > 100 µM | [6] 56 µM | [7] > 100 µM | [8] 61.9 µM | [19] > 100 µM | [10] > 100 µM | [12] 16.4 µM | [13] 65.6 µM | [15] > 100 µM | [17] 42.4 µM

N#CCCc1nc2ccc(Br)cc2c(=O)n1-c1ccc(O)c([N+](=O)[O-])c1
inactive: [1] 22.9 µM | [2] 19.3 µM | [3] 27.7 µM | [4] 32.9 µM | [5] 34.7 µM | [18] 55 µM | [6] 18.5 µM | [7] 24.1 µM | [9] 25.6 µM | [10] 38.5 µM | [12] 17.3 µM | [13] 30.1 µM | [14] 19 µM | [15] 27.5 µM | [16] 47.3 µM | [17] 26.7 µM

CS/C(=N\C(=S)N(C)C)N(c1ccccc1)c1nc(N(C)C)s[s+]1
inactive: [1] 2 µM | [2] 2.21 µM | [3] 2.67 µM | [4] 29 µM | [5] 40.3 µM | [18] 3.84 µM | [6] 3.65 µM | [7] 12.1 µM | [8] 32.6 µM | [9] 27.9 µM | [10] 41.3 µM | [11] 10 µM | [12] 1.84 µM | [13] 3.95 µM | [14] 5.74 µM | [15] 2.91 µM | [16] 1.9 µM | [17] 3.18 µM

O=C1NCC2(CCNCC2)N1
inactive: [1] > 100 µM | [2] > 100 µM | [3] > 100 µM | [5] > 100 µM | [18] > 100 µM | [6] > 100 µM | [7] > 100 µM | [8] > 100 µM | [9] > 100 µM | [10] > 100 µM | [11] > 100 µM | [20] > 100 µM | [12] > 100 µM | [13] > 100 µM | [14] > 100 µM | [15] > 100 µM | [16] > 100 µM | [17] > 100 µM

N#C/N=C(/N)NCO
inactive: [1] > 42.1 µM | [2] > 100 µM | [3] > 64.1 µM | [4] > 100 µM | [5] > 100 µM | [18] > 57.4 µM | [6] > 40 µM | [7] 63.5 µM | [8] > 100 µM | [9] > 100 µM | [10] > 100 µM | [11] > 46 µM | [12] > 48.2 µM | [13] > 100 µM | [14] > 39.9 µM | [15] > 78 µM | [16] > 100 µM | [17] > 100 µM

COc1ccccc1CNCCCCCNCCCCCCCCCCNCCCCCNCc1ccccc1OC
inactive: [1] 34.3 µM | [2] 79.1 µM | [3] 96.6 µM | [5] 54.6 µM | [18] 23.4 µM | [6] 4.54 µM | [7] 39.4 µM | [8] 38.1 µM | [9] 42 µM | [11] 11.8 µM | [20] 18 µM | [12] 36.7 µM | [14] 16.7 µM | [15] 13.8 µM | [17] 25.6 µM

COC(=O)/C(=N/O)C(C(=O)OC)C(=O)C(=O)Nc1c(Cl)cc(C)cc1S(=O)(=O)O (stereo unspecified)
inactive: [1] > 100 µM | [2] > 100 µM | [3] > 100 µM | [4] > 100 µM | [5] > 100 µM | [18] > 100 µM | [6] > 100 µM | [7] > 100 µM | [8] > 100 µM | [9] > 100 µM | [10] > 100 µM | [11] 43.8 µM | [12] 23.5 µM | [13] > 100 µM | [14] 41 µM | [15] 41.5 µM | [16] > 100 µM | [17] > 100 µM

O=C(O)CCNCCCNCCC(=O)O
inactive: [1] > 100 µM | [2] > 100 µM | [3] > 100 µM | [4] > 100 µM | [5] > 100 µM | [18] > 100 µM | [6] > 100 µM | [7] > 100 µM | [8] > 100 µM | [10] > 100 µM | [11] > 100 µM | [12] > 100 µM | [14] > 100 µM | [15] > 100 µM | [16] > 100 µM | [17] 66.8 µM

O=C(CC(=O)n1nc(-c2ccccc2)c(/N=N/c2ccc(Cl)cc2)c1-c1ccccc1)Nc1ccc(Cl)cc1
inactive: [1] > 46.9 µM | [2] > 100 µM | [3] > 43.3 µM | [4] > 100 µM | [5] > 61.1 µM | [18] > 43.9 µM | [6] 48.6 µM | [7] > 88.7 µM | [8] > 100 µM | [9] > 100 µM | [10] > 100 µM | [11] > 39.9 µM | [12] > 46.3 µM | [13] > 49.2 µM | [14] > 41.5 µM | [15] > 43.4 µM | [16] > 100 µM | [17] > 50.5 µM

Cc1nc2c(o1)/C(=N\c1ccccc1)c1ccccc1/C2=N/c1ccccc1
inactive: [1] 29.1 µM | [3] 94.2 µM | [4] > 100 µM | [5] > 100 µM | [18] > 100 µM | [6] 85.5 µM | [7] > 100 µM | [8] > 100 µM | [9] 73.6 µM | [10] > 100 µM | [11] 70.8 µM | [12] 47 µM | [13] > 100 µM | [14] 28.4 µM | [15] 39.4 µM | [16] > 100 µM | [17] 61.8 µM

Cc1cc(O)c2c(c1)C(=O)c1cc(O)cc(O)c1C2=O [EMODIN]
inactive: [1] 19.8 µM | [2] 25.4 µM | [3] 33.7 µM | [4] 17.1 µM | [5] 39.4 µM | [18] 23 µM | [6] 20.5 µM | [7] 22 µM | [8] 31.8 µM | [10] 30.7 µM | [11] 24 µM | [12] 17.7 µM | [13] 28.1 µM | [14] 15.9 µM | [15] 20.3 µM | [16] 21.3 µM | [17] 32.6 µM
